From US20160310472A1, “PHARMACEUTICAL COMPOSITIONS COMPRISING SULBACTAM AND IMIPENEM” (priority 2013, published 2016)

Legend:
[1] = tested on: A. baumannii S-224 strain; experiment: Time-kill study, viable bacterial count in broth, A. baumannii S-224; format: cell-based, Acinetobacter baumannii
Procedure: (§1) The antibacterial activity of compositions according to the invention against various bacterial strains was investigated. In a typical study, freshly grown cultures were diluted to required cell density (initial starting inoculum) in Brain Heart Infusion broth medium (BD, USA). The antibacterial agents (either alone or in combination) in required concentrations were added into the culture containing medium. The samples were incubated under shaking conditions (120 rpm) at 37° C. Enumeration of viable bacterial count was undertaken, every 2 hours, by diluting in normal saline and plating on to Tryptic Soya Agar plates (BD, USA). The plates were incubated for 24 hours to arrive at a viable bacterial count.
A. baumannii S-224 strain expresses both Class D beta-lactamases (OXA-51 and OXA-23 like) and Class B metalo-beta-lactamases (NDM).

A. baumannii S-12 strain = experiment: Time-kill study, viable bacterial count in broth, A. baumannii S-12; format: cell-based, Acinetobacter baumannii
Procedure: as §1

A. baumannii S-5 strain = experiment: Mouse Systemic Infection Model; details: agent alone; Swiss albino mice, subcutaneous TID from 1 hour post infection, survival over 10 days

## CC1(C)[C@H](C(=O)O)N2C(=O)C[C@H]2S1(=O)=O [Sulbactam]
[1]; Sulbactam 16 mcg/ml, 0 hour
  Bacterial count: 6.74 log CFU/ml
[1]; Sulbactam 16 mcg/ml, 2 hours
  Bacterial count: 6.65 log CFU/ml
[1]; Sulbactam 16 mcg/ml, 4 hours
  Bacterial count: 7.17 log CFU/ml
[1]; Sulbactam 16 mcg/ml, 6 hours
  Bacterial count: 7.27 log CFU/ml
A. baumannii S-12 strain; S-12 strain
  Decrease in number of colony forming units (in words): not observed
A. baumannii S-12 strain; Sulbactam 16 mcg/ml, 0 hour
  Bacterial count: 6.87 log CFU/ml
A. baumannii S-12 strain; Sulbactam 16 mcg/ml, 2 hours
  Bacterial count: 5.84 log CFU/ml
A. baumannii S-12 strain; Sulbactam 16 mcg/ml, 4 hours
  Bacterial count: 5.27 log CFU/ml
A. baumannii S-12 strain; Sulbactam 16 mcg/ml, 6 hours
  Bacterial count: 6.23 log CFU/ml

## C[C@@H](O)[C@H]1C(=O)N2C(C(=O)O)=C(SCCN=CN)C[C@H]12 [Imipenem]
[1]; Imipenem 8 mcg/ml, 0 hour
  Bacterial count: 6.74 log CFU/ml
[1]; Imipenem 8 mcg/ml, 2 hours
  Bacterial count: 7.20 log CFU/ml
[1]; Imipenem 8 mcg/ml, 4 hours
  Bacterial count: 8.11 log CFU/ml
[1]; Imipenem 8 mcg/ml, 6 hours
  Bacterial count: 8.04 log CFU/ml
[1]; Imipenem 16 mcg/ml, 0 hour
  Bacterial count: 6.74 log CFU/ml
[1]; Imipenem 16 mcg/ml, 2 hours
  Bacterial count: 7.17 log CFU/ml
[1]; Imipenem 16 mcg/ml, 4 hours
  Bacterial count: 8.04 log CFU/ml
[1]; Imipenem 16 mcg/ml, 6 hours
  Bacterial count: 7.90 log CFU/ml
A. baumannii S-12 strain; Imipenem 8 mcg/ml, 0 hour
  Bacterial count: 6.87 log CFU/ml
A. baumannii S-12 strain; Imipenem 8 mcg/ml, 2 hours
  Bacterial count: 7.69 log CFU/ml
A. baumannii S-12 strain; Imipenem 8 mcg/ml, 4 hours
  Bacterial count: 8.27 log CFU/ml
A. baumannii S-12 strain; Imipenem 8 mcg/ml, 6 hours
  Bacterial count: 8.27 log CFU/ml
A. baumannii S-12 strain; Imipenem 16 mcg/ml, 0 hour
  Bacterial count: 6.87 log CFU/ml
A. baumannii S-12 strain; Imipenem 16 mcg/ml, 2 hours
  Bacterial count: 7.69 log CFU/ml
A. baumannii S-12 strain; Imipenem 16 mcg/ml, 4 hours
  Bacterial count: 8.11 log CFU/ml
A. baumannii S-12 strain; Imipenem 16 mcg/ml, 6 hours
  Bacterial count: 7.84 log CFU/ml
A. baumannii S-5 strain
  ED50: >50 mg/kg body weight
  ED90: >50 mg/kg body weight
